Measurements from patent US11377442B2, “Small molecule agonists and antagonists of NR2F6 activity” (ZANDER THERAPEUTICS, INC., priority 2016, dated 2022).
Read-outs that look alike come from different tables or passages of the source.

How the values were obtained:
Type in all cases: cell-based
NR2F6 = target: T1, NR2F6 (Homo sapiens, UniProt P10588); assay: NR2F6 agonist screening, Firefly signal cmpd/DMSO; conditions: for Firefly F4, cmpd/DMSO (mean): Table 14; for activity (in words): screening result
T1 construct: expressed in transfected cells; also transient transfection
T1 sequence (P10588 1-404): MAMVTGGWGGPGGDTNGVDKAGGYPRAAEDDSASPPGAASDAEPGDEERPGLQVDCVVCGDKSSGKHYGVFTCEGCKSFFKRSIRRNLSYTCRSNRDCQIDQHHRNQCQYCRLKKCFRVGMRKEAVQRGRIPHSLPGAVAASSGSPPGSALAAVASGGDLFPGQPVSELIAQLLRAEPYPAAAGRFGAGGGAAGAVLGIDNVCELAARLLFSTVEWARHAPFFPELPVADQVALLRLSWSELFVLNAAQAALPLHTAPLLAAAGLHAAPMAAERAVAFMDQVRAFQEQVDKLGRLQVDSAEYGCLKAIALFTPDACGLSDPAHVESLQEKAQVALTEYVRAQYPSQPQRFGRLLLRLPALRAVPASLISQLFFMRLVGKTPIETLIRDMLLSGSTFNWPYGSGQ

Renilla = Renilla signal in NR2F6 agonist screening, cmpd/DMSO; conditions: for fold induction at 2 µM / fold induction at 10 µM / fold induction at 40 µM: Renilla, Table 14, read-out: Renilla F4, cmpd/DMSO (mean)
HEK293 pGL4 = assay: Firefly_pGL signal, cmpd/DMSO (pGL4 control cells); conditions: Homo sapiens, HEK293, Table 14, read-out: Firefly pGL4, cmpd/DMSO (mean)

SMILES	Firefly F4, cmpd/DMSO (mean) (NR2F6; 2 uM)	Firefly F4, cmpd/DMSO (mean) (NR2F6; 10 uM)	Firefly F4, cmpd/DMSO (mean) (NR2F6; 40 uM)	fold induction at 2 µM (Renilla; 2 uM)	fold induction at 10 µM (Renilla; 10 uM)	fold induction at 40 µM (Renilla; 40 uM)	fold induction at 2 µM (HEK293 pGL4)	fold induction at 10 µM (HEK293 pGL4)	fold induction at 40 µM (HEK293 pGL4)	Firefly, cmpd/DMSO (mean) (NR2F6)	further results
Cc1ccc(NC(=O)c2noc3c2CCC3)cc1C [Compound C301]	1.2	1.0	1.0	1.1	0.7	1	2.4	1.6	1.1	–	–
Cc1ccc(NC(=O)c2noc3c2CCCC3)cc1C [Compound C302]	1.2	0.9	0.9	0.7	1.1	1	1.8	1.4	0.8	–	–
Cc1ccc(NC(=O)c2noc3c2CC(C(C)(C)C)CC3)cc1C (stereo not shown) [Compound C303]	1.2	0.9	0.9	1	0.8	1	1.1	1.1	1.1	–	–
Cc1cc(C)n2nc(CNS(=O)(=O)c3ccc(F)cc3)nc2n1 [Compound E12]	0.7	0.9	0.5	0.7	0.7	1	0.9	0.8	1	–	–
Cc1ccc(NC(=O)c2noc3c2CC(C)CC3)cc1C (stereo not shown) [Compound E53]	1.0	1.1	1.4	0.9	0.8	1.1	1.5	1.4	1.6	–	cytotox effect (decreasing both renilla and firefly activity) (NR2F6; NR2F6 agonist activity confirmation): strong cytotox effect; increase of firefly activity (NR2F6; at 10 uM): 6 times; firefly signal over DMSO level (NR2F6; at 10 uM and 50 uM): ~3 times
CCn1cc2c(n1)c(=O)n(Cc1ccccc1)c(=O)n2CC(=O)Nc1ccc(Br)cc1 [Compound L1]	0.9	0.5	0.5	0.8	0.8	0.7	0.8	0.4	0.8	–	–
COc1ccc(NC(=O)c2ccc3nc(-c4ccccc4)cn3c2)c(OC)c1 [Compound P1]	–	–	–	–	–	–	–	–	–	–	Firefly, cmpd/DMSO (mean) (NR2F6; mean of repeats): 3.5; Firefly, cmpd repeat 1 (NR2F6; raw signal, repeat 1): 236; Firefly, cmpd repeat 2 (NR2F6; raw signal, repeat 2): 166; Firefly, cmpd/DMSO repeat 1 (NR2F6; repeat 1): 4.0; Firefly, cmpd/DMSO repeat 2 (NR2F6; repeat 2): 3.0; activity (in words) (NR2F6): good activity
CCOC(=O)c1cnc2c(C)cc(C)cc2c1NCCCN(C)C [Compound Z54]	0.8	1.6	0.6	0.7	0.3	0.2	1.1	1.9	0.8	–	activity (in words) (NR2F6): particularly good activity
Cc1cc(C)n2nc(CNS(=O)(=O)c3c(F)c(F)c(F)c(F)c3F)nc2n1 [Compound Z55]	1.1	0.8	2.0	0.8	0.3	0.1	0.8	0.7	2.3	–	activity (in words) (NR2F6): particularly good activity
Cc1cc(C)nc(Sc2nnc(-c3ccc(C)c(S(=O)(=O)N4CCOCC4)c3)c3ccccc23)n1 [Compound Z56]	1.2	2.1	0.5	0.9	0.3	0.2	1.2	8.9	1.2	–	activity (in words) (NR2F6): particularly good activity
CCOC(=O)c1cnc2c(C)cc(C)cc2c1NCc1ccccc1 [Compound Z74]	0.7	0.5	0.7	0.8	0.2	0.3	0.7	0.6	0.7	–	–
CCOC(=O)c1cnc2c(C)cc(C)cc2c1N1CCC(CO)CC1 [Compound Z79]	0.9	0.5	0.3	0.9	0.6	0.2	0.8	0.5	0.8	–	–
COC(=O)c1cnc2c(C)cc(C)cc2c1NCCCN(C)C [Compound Z81]	2.4	0.7	0.4	1.1	0.3	0.3	1.4	0.9	0.7	–	–
Cc1cc(C)c2ncc(C(N)=O)c(NCCCN(C)C)c2c1 [Compound Z83]	1.2	0.6	0.7	1	0.8	0.3	1	0.9	0.5	–	–
Cc1ccc(NC(=O)c2n[nH]c3c2CC(C)CC3)cc1C (stereo not shown) [Compound Z96]	–	–	–	–	–	–	–	–	–	–	NR2F6_full (stable, clone F4), cmpd/DMSO Firefly (NR2F6; 2 uM): 2.9; NR2F6_full (transient), cmpd/DMSO Firefly (NR2F6; 2 uM): 2.4; NR2F6_full (stable, clone F4), cmpd/DMSO Firefly (NR2F6; 10 uM): 2.6; NR2F6_full (transient), cmpd/DMSO Firefly (NR2F6; 10 uM): 2.3; NR2F6_full (stable, clone F4), cmpd/DMSO Firefly (NR2F6; 40 uM): 2.6; NR2F6_full (transient), cmpd/DMSO Firefly (NR2F6; 40 uM): 2.4; NR2F6_full (stable, clone F4), cmpd/DMSO Renilla (Renilla; 2 uM): 1.3; NR2F6_full (transient), cmpd/DMSO Renilla (Renilla; 2 uM): 1.0; NR2F6_full (stable, clone F4), cmpd/DMSO Renilla (Renilla; 10 uM): 1.2; NR2F6_full (transient), cmpd/DMSO Renilla (Renilla; 10 uM): 1.0; NR2F6_full (stable, clone F4), cmpd/DMSO Renilla (Renilla; 40 uM): 1.2; NR2F6_full (transient), cmpd/DMSO Renilla (Renilla; 40 uM): 0.9
COc1ccc(-c2noc(Cn3ncccc3=O)n2)cc1 [Compound Z97]	–	–	–	–	–	–	–	–	–	2.1	NR2F6_full (stable, clone F4), cmpd/DMSO Firefly (NR2F6; 2 uM): 2.3; NR2F6_full (transient), cmpd/DMSO Firefly (NR2F6; 2 uM): 2.4; NR2F6_full (stable, clone F4), cmpd/DMSO Firefly (NR2F6; 10 uM): 2.2; NR2F6_full (transient), cmpd/DMSO Firefly (NR2F6; 10 uM): 2.8; NR2F6_full (stable, clone F4), cmpd/DMSO Firefly (NR2F6; 40 uM): 1.5; NR2F6_full (transient), cmpd/DMSO Firefly (NR2F6; 40 uM): 2.3; NR2F6_full (stable, clone F4), cmpd/DMSO Renilla (Renilla; 2 uM): 1.1; NR2F6_full (transient), cmpd/DMSO Renilla (Renilla; 2 uM): 1.0; NR2F6_full (stable, clone F4), cmpd/DMSO Renilla (Renilla; 10 uM): 1.1; NR2F6_full (transient), cmpd/DMSO Renilla (Renilla; 10 uM): 1.1; NR2F6_full (stable, clone F4), cmpd/DMSO Renilla (Renilla; 40 uM): 1.2; NR2F6_full (transient), cmpd/DMSO Renilla (Renilla; 40 uM): 1.1
CC(=O)Nc1ccc(Cl)c2nonc12 [Compound Z113]	–	–	–	–	–	–	–	–	–	1.0	Firefly, cmpd/DMSO (mean) (NR2F6; Concentration 2): 1.3; F4, cmpd/DMSO (mean) (NR2F6; Concentration 2): 1.2; Firefly, cmpd/DMSO (mean) (NR2F6; Concentration 10): 1.1; F4, cmpd/DMSO (mean) (NR2F6; Concentration 10): 1.5; Firefly, cmpd/DMSO (mean) (NR2F6; Concentration 40): 0.9; F4, cmpd/DMSO (mean) (NR2F6; Concentration 40): 1.2
COc1ccccc1-c1noc(Cn2nccc(Cl)c2=O)n1 [Compound Z134]	–	–	–	–	–	–	–	–	–	1.1	–
COc1ccccc1-c1noc(Cn2ncc(Cl)cc2=O)n1 [Compound Z135]	–	–	–	–	–	–	–	–	–	1.0	–
COc1cccc(-c2noc(Cn3ncc(C)c(C)c3=O)n2)c1 [Compound Z139]	–	–	–	–	–	–	–	–	–	1.5	–
COc1ccc(-c2noc(Cn3ncc(C)c(C)c3=O)n2)cc1 [Compound Z140]	–	–	–	–	–	–	–	–	–	1.2	–
COc1ccc(-c2noc(Cn3nccc(Cl)c3=O)n2)cc1 [Compound Z141]	–	–	–	–	–	–	–	–	–	1.8	–
COc1ccc(-c2noc(Cn3ncc(Cl)cc3=O)n2)cc1 [Compound Z142]	–	–	–	–	–	–	–	–	–	1.1	–
COc1ccccc1-c1noc(COc2nccc(C)n2)n1 [Compound Z149]	–	–	–	–	–	–	–	–	–	1.5	–
COc1ccccc1-c1noc(Cn2ncc(C)cc2=O)n1 [Compound Z150]	–	–	–	–	–	–	–	–	–	1.0	–
COc1ccccc1-c1noc(Cn2nccc(C)c2=O)n1 [Compound Z151]	–	–	–	–	–	–	–	–	–	1.1	–
COc1ccc(-c2noc(Cn3ncc(C)cc3=O)n2)cc1 [Compound Z152]	–	–	–	–	–	–	–	–	–	1.6	–
COc1ccc(-c2noc(Cn3nccc(C)c3=O)n2)cc1 [Compound Z153]	–	–	–	–	–	–	–	–	–	2.0	–
